From US20220401408A1, “COMPOSITIONS AND METHODS FOR RESCUING RETINAL AND CHOROIDAL STRUCTURE AND FUNCTION” (AUCKLAND UNISERVICES LIMITED, priority 2019, published 2022)
“Also recorded” adds a separate entry of the source.

Key:
[1] = tested on: GFAP, Iba-1, Connexin43 (retinal inflammation markers); assay: Immunohistochemical labelling of GFAP, Iba-1 and Connexin43 in retina of light damaged rats; format: in vivo, Sprague Dawley (SD) rats
Method: (§1) Retina Light Damage Model of Dry Age-Related Macular Degeneration—The intense light damage model was prepared and carried out as described in previous studies. Mat Nor N, Guo C X, Rupenthal ID, Chen Y S, Green C R, Acosta M L. Sustained Connexin43 Mimetic Peptide Release From Loaded Nanoparticles Reduces Retinal and Choroidal Photodamage. Invest Ophthalmol Vis Sci. 2018; 59:3682-93; Guo C X, Mat Nor M N, Danesh-Meyer H V, Vessey K A, Fletcher E L, O'Carroll S J, et al. Connexin43 Mimetic Peptide Improves Retinal Function and Reduces Inflammation in a Light-Damaged Albino Rat Model. Invest Ophthalmol Vis Sci. 2016; 57:3961-73; Guo C X, Tran H, Green C R, Danesh-Meyer H V, Acosta M L. Gap junction proteins in the light-damaged albino rat. Mol Vis. 2014; 20:670-82; Noell W K, Walker V S, Kang B S, Berman S. Retinal damage by light in rats. Invest Ophthalmol. 1966; 5:450-73. The light damage rat model was selected as it allows direct comparison with this and other drugs. Kim Y, Griffin J M, Nor M N M, Zhang J, Freestone P S, Danesh-Meyer H V, et al. Tonabersat Prevents Inflammatory Damage in the Central Nervous System by Blocking Connexin43 Hemichannels. Neurotherapeutics. 2017; 14:1148-65; Mat Nor N, Guo C X, Rupenthal ID, Chen Y S, Green C R, Acosta M L, supra; Guo C X, Mat Nor M N, Danesh-Meyer H V, Vessey K A, Fletcher E L, O'Carroll S J, et al., supra. […] All experimental procedures were approved by the University of Auckland Animal Ethics Committee, approval No. 001462 and comply with the Association for Research in Vision and Ophthalmology (ARVO) statement for the use of animals in eye research. Six to eight-week old albino Sprague Dawley (SD) rats (200-250 g; male or female) were used. Adult SD rats were exposed to continuous bright light for 24 hours, consistently starting at 9:00 am to minimize possible time-of-day variability. Light exposure was to two animals at a time to prevent rats from taking cover using each other as a shield. The LD protocol and intervention was repeated until the number of individuals for each dose group was obtained (n=7 per group). The light luminance was 2700 lux, generated using fluorescent lamps (Philips Master TLD 18W/965; Koninklijke Philips Electronics N.V., China) directly above the animal cages. The lamps were cool and emitted broadband light, from 380 to 760 nm wavelength, with the average intensity at the top of the cage being 120 W/m2. Animals were free to move within the cage with access to food and water ad libidum. Baseline electroretinography (ERG) readings and optical coherence tomography (OCT) images were collected prior to the light damage. After light exposure, animals were returned to normal light-dark cycle conditions (12 hours light, 174 lux and 12 hours darkness, <62 lux) for 24 hours, 1 week or 2 weeks (and for one group 3 months).
(§2) Tonabersat treatment of light damaged rats—LD rats were randomly assigned to low, middle or high dose of tonabersat (n=7 per group). The mixture of tonabersat in peanut butter was prepared fresh for each experiment. Three oral tonabersat doses were tested (n=7 per group) with follow up to 2 weeks post-injury, and the highest dose group then split with three animals taken for histological analysis, and four animals followed to 3 months post-injury. There was a ten-animal vehicle only control group. The group of rats that were kept for 3 months were maintained in separate cages for drug or vehicle-treated animals, but were kept under the same light conditions. Tonabersat was fed to animals in peanut butter at 0.26 mg/kg (on average 0.08 mg delivered, estimated circulating concentration 10 μM), 0.8 mg/kg (average of 0.24 mg delivered; 30 μM circulating) or 2.4 mg/kg (on average 0.72 mg delivered; 90 μM circulating) following consideration of previous unsuccessful human trial dosing levels. Silberstein S D. Tonabersat, a novel gap-junction modulator for the prevention of migraine. Cephalalgia. […]

light damaged rats = assay: Electroretinogram (ERG) in retina light damage model of dry AMD; format: in vivo, Sprague Dawley (SD) rats; settings: for mixed a-wave amplitude vs light damaged control group: 1 week post treatment
Method: as §1, §2

[2] = all tonabersat treated groups, p<0.001
[3] = 2.4 mg/kg oral single dose, 3 months after light damage

`CC(=O)c1ccc2c(c1)[C@H](NC(=O)c1ccc(F)c(Cl)c1)[C@H](O)C(C)(C)O2` [tonabersat, N-[(3S,4S)-6-acetyl-3-hydroxy-2,2-dimethyl-3,4-dihydrochromen-4-yl]-3-chloro-4-fluorobenzamide] was tested, and the Iba-1 reactivity ([1]; 0.26 mg/kg) was “slightly higher level”, the GFAP labelling ([1]; 0.26 mg/kg, significantly less than vehicle) was “slight increase” and the “GFAP immunoreactivity in the retina compared to vehicle” value ([1]; 0.8 mg/kg) was “did not increase”. The “GFAP immunoreactivity in the retina compared to vehicle” value ([1]; 2.4 mg/kg) was “did not increase”, the “Connexin43 immunoreactivity in the retina compared to vehicle” value ([1]; all three tonabersat doses) was “less” and the “Connexin43 level, image quantification vs vehicle controls” value [1, 2] was “significantly less”. The “GFAP level, image quantification vs vehicle controls” value [1, 2] was “significantly less”, the “Iba-1 level, image quantification vs vehicle controls” value [1, 2] was “significantly less” and the “Iba-1 immunolabelled cells in inner plexiform layer compared to vehicle” value ([1]; drug treated groups (all three doses)) was “less active”. The improvement in absolute amplitude of the b-wave (on average) (light damaged rats; 0.26 mg/kg oral) was 1000 µV, the “mixed a-wave amplitude vs light damaged control group” value (light damaged rats; 0.26 mg/kg oral single dose, p<0.01) was “significant improvements” and the mixed b-wave function (light damaged rats; 0.26 mg/kg oral, 24 hours after treatment) was “significant improvement”. The improvement in absolute amplitude of the b-wave (on average) (light damaged rats; 0.8 mg/kg oral) was 1000 µV, the “mixed a-wave amplitude vs light damaged control group” value (light damaged rats; 0.8 mg/kg oral single dose, p<0.01) was “significant improvements” and the mixed b-wave function (light damaged rats; 0.8 mg/kg oral, 24 hours after treatment) was “significant improvement”. The improvement in absolute amplitude of the b-wave (on average) (light damaged rats; 2.4 mg/kg oral) was 1200 µV, the “mixed b-wave function, significant improvement” value (light damaged rats; 2.4 mg/kg oral (high dose), 24 hours after treatment) was “not seen” and the “mixed a-wave amplitude vs light damaged control group” value (light damaged rats; 2.4 mg/kg oral single dose, intensities 0.1-2.1 log cd·s/m2, p<0.001) was “significant improvements”. For the same molecule, the “a-wave improvement in photoreceptor function compared with vehicle treated controls” value (light damaged rats; [3]) was “exceeding 400 V”, the “b-wave amplitude compared with vehicle treated controls” value (light damaged rats; [3]) was “exceeded 800 V” and the “PII rod response compared to before light damage” value (light damaged rats; 2.4 mg/kg oral, 3 months) was “no change; also recorded: matching the controls”. The “PIII rod response compared to before light damage” value (light damaged rats; 2.4 mg/kg oral, 3 months) was “no change; also recorded: only slightly lower”, the “ERG, difference to vehicle control group” value (light damaged rats; 24 hours post-light exposure, any of three oral doses (0.26, 0.8, 2.4 mg/kg)) was “no differences” and the “inner retinal function (mixed b-wave amplitude, all stimulus intensities)” value (light damaged rats; all three oral doses, 1 and 2 weeks post-treatment) was “overt improvement”. For the same molecule, the “improvement in ERG a-wave over vehicle treated light-injured group” value (light damaged rats; all three oral doses, 2 weeks post-treatment, highest intensity, p<0.001) was ~500 V, the mixed a-wave amplitude (light damaged rats; all three oral doses, 2 weeks post-treatment, intensities 0.1-2.1 log cd·s/m2, p<0.001) was “significant recovery” and the “mixed a-wave and mixed b-wave functions” value (light damaged rats; all tonabersat-treated animals, end of 2-week recovery period) was “within the range of variance for normal, undamaged albino rats”.
